Laboratory results from US12265087B2, “Olfactory receptor as microglia marker and use thereof” (DAEGU GYEONGBUK INSTITUTE OF SCIENCE AND TECHNOLOGY, priority 2019, dated 2025).

Experiments:
Assay type in all cases: cell-based, mouse
primary microglia [1] = experiment: Phagocytosis of FITC-dextran by primary microglia (FACS); details: 100, 300 and 500 μM
Protocol: Primary microglia were seeded in 24-well plates (5×10^5 cells/well) and incubated for 24 hours. Cells were preincubated with 2-PF or Sup for 30 minutes, incubated with FITC-dextran (1 mg/ml, 20 mg/ml in PBS; #FD70S; Sigma Aldrich) in serum-free DMEM at 37° C. for […], and washed with PBS at 4° C. The cells were detached with 0.25% trypsin (#15090-046; Thermo Fisher Scientific) in PBS, and the detached cells were analyzed with FACS Accuri™ C6 (BD Biosciences). Mean fluorescence intensity (MFI) was calculated by integrating fluorescence histograms under each condition using the software. A phagocytosis index was defined as MFI, normalized against an untreated group.

primary microglia [2] = experiment: Western blotting of phosphorylated signaling proteins in primary microglia; details: 0-30 min after treatment
Protocol: Cells and tissue were prepared using the T-PER® reagent (#78510; Thermo Fisher Scientific) containing protease inhibitors (#04-693-116-001; Roche Molecular Diagnostics) and DMSF (Sigma-Aldrich), and then lysed using a MagNA lyser (Roche Molecular Diagnostics). A total protein extract was quantified by the Bradford assay. The samples were dissolved in 7.5% SDS-PAGE or 4-20% gradient mini-PROTEIN TGX Precast Gels (#456-1064; Bio-Rad Laboratories), and then blotted on nitrocellulose membranes (#10600002; GE Healthcare). Afterward, the membranes were blocked for 1 hour in 5% non-fat dry milk and TBST, 0.1% TWEEN® 20 (#P9416; Sigma-Aldrich), and Tris-buffered saline, and then incubated with primary antibodies at 4° C. overnight. The antibodies were as follows: Olfr110 (36 kDa; 1:1,000; #ab177327; Abcam), anti-rhodopsin (39 kDa; 1:1,000; #MABN15; Millipore), CREB (43 kDa; 1:1,000; #9197; Cell Signaling Technology), phospho-CREB (43 kDa; 1:1,000; #9198; Cell Signaling Technology), ERK (44 kDa; 1:1,000; #sc094; Santa Cruz), phospho-ERK (42, 44 kDa; 1:1,000; #sc-7383; Santa Cruz), phospho-Akt (60 kDa; 1:500; sc-293125; Santa Cruz), phospho-JNK (46, 54 kDa; 1:500; sc-6254; Santa Cruz), phosphor-p38 (38 kDa; 1:1,000; sc-7973; Santa Cruz), and beta-Actin (45 kDa; 1:10,000; #4967; Cell Signaling Technology). In addition, as isotype-matched horseradish peroxidase-conjugated secondary antibodies, anti-rabbit IgG (#711-035-152; Jackson ImmunoResearch) diluted 1:100,000, and anti-mouse IgG (#715-035-150; Jackson ImmunoResearch) diluted 1:40,000 in TBST were used at room temperature for 2 hours. Immunoreactive protein bands were obtained using SuperSignal™ West Pico Chemiluminescent Substrate (#34080; Thermo Fisher Scientific).

primary microglia [3] = experiment: mRNA-sequencing of primary microglia (DEGs, GOBP); details: Sup MOI 100 or 2-PF 100 μM, 2 hours
Protocol: After a vehicle (control), Sup (MOI 100) or 2-PF (100 μM) treatment for 2 hours, total RNA was isolated from 2×10^6 cells of primary microglia using a RNeasy miniKit (Qiagen, 74104), and analyzed using a Qubit RNA HS assay kit (Thermo Fisher Scientific, Q32852) according to the manufacturer's standard protocol for quantification. The RNA integrity number (RIN) of each sample was measured using the Agilent Technologies 2100 BioAnalyzer, and the RINs of all samples were 8.5 or more, which is suitable for mRNA sequencing. Full-length cDNA was generated using a SMARTer-Seq v4 Ultra Low input RNA Kit (Clontech, 634888) according to the manufacturer's recommended protocol. The first strand synthesis of cDNA was initiated from 10 ng total RNA by adding 1 μl of 3′ SMART CDS primer II A for 3 minutes at 72° C. […] After PCR, the DNA library was purified using AMPure beads and quality was assessed by an Agilent 2100 Bioanalyzer. A DNA library of each sample was quantified using a KAPA library quantification kit (KAPA Biosystems, KK4854) and then pooled. All libraries were sequenced using an Illumina Hiseq2500 instrument to generate dual-indexed 100-bp paired reads, thereby obtaining an average of 58 million reads for each sample. […] The remaining reads were aligned to the mouse reference genome (GRCm38) using TopHat (Trapnell et al., 2009) with default options. […]

## CCCCCc1ccco1 [2-PF, 2-pentylfuran]
Primary microglia [1]
  phagocytosis: significantly increased in a concentration-dependent manner
Primary microglia [2]
  phosphorylation levels of ERK, p38, JNK and Akt: increased from 2 minutes and stopped increasing at 20 minutes
Primary microglia [3]
  genes regulated (mRNA-seq): up-regulate genes involved in microglial activation
